# Test results from patent US9708314B2, “Heterocyclic amide compound” (NISSAN CHEMICAL INDUSTRIES, LTD., priority 2013, dated 2017).
# Experiments:
# Format in all cases: in vivo
# [1] = system: transplanted Oryza sativa; assay: Test Example 1: effect on crop, application before weed generation in submerged conditions; settings: Seventeenth Table
# Method in brief: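 Alluvial soil in Wagner pots flooded to 4 cm water depth; weed seeds sown and 2.5 leaf stage rice seedlings transplanted. Emulsion diluted in water applied to water surface on sowing day at stated g/ha. Greenhouse 25° C. to 30° C.; effects scored 0–5 by herbicidal ratio after three weeks.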
# [2] = system: Cyperus difformis; assay: Test Example 3: herbicidal effect by application to foliage (Wagner pot, water depth 0.1-0.5 cm); settings: Nineteenth Table, application to foliage
# Method in brief: (§1)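 Grading uses six bands of herbicidal ratio, from 0 (≤5%, almost no effect) to 5 (≥90%, almost completely withered). Treatment was a stem-and-leaf spray of diluted emulsion at a fixed g/ha on 14-day-old plants; evaluation after three weeks.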
# [3] = system: Echinochloa crus-galli var. crus-galli; assay: as above; settings: Nineteenth Table, application to foliage
# Method in brief: as §1
# [4] = system: Leptochloa chinensis; assay: as above; settings: Nineteenth Table, application to foliage
# Method in brief: as §1
# [5] = system: Beta vulgaris ssp. vulgaris; assay: Test Example 4: effect on crop by application to foliage (diluvial soil, plastic box); settings: for f: Application herbicide amount 320 g/ha, effect on crop
# Method in brief: (§2)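 Scores run from 0 (herbicidal ratio ≤5%) to 5 (≥90%, almost fully withered) and were assessed three weeks after foliar spraying. Seedlings had been raised for 14 days at 25-30° C in sterilized diluvial soil before treatment, with the emulsion diluted in water to the stated g/ha dose.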
# [6] = system: Brassica campestris L.; assay: as above; settings: for g: Application herbicide amount 320 g/ha, effect on crop
# Method in brief: as §2
# [7] = system: Glycine max; assay: as above; settings: for c: Application herbicide amount 320 g/ha, effect on crop
# Method in brief: as §2
# [8] = system: Zea mays; assay: as above; settings: for b: Application herbicide amount 320 g/ha, effect on crop
# Method in brief: as §2
# [9] = system: directly sowed Oryza sativa; assay: as above; settings: for d: Application herbicide amount 320 g/ha, effect on crop
# Method in brief: as §2
# [10] = Application herbicide amount 320 g/ha
# [11] = application herbicide amount 320 g/ha
# [12] = application herbicide amount 192 g/ha
SMILES,"a: transplanted Oryza sativa (effect on crop grade) [1, 10]","E (herbicidal effect grade) [2, 11]","H (herbicidal effect grade) [3, 11]","D (herbicidal effect grade) [4, 11]",f [5],g [6],c [7],b [8],d [9],a: transplanted Oryza sativa (effect on crop grade) ([1]; Application herbicide amount 192 g/ha),"E (herbicidal effect grade) [2, 12]","H (herbicidal effect grade) [3, 12]","D (herbicidal effect grade) [4, 12]","f (Beta vulgaris ssp. vulgaris) effect on crop grade ([5]; foliage application, 192 g/ha)","g (Brassica campestris L.) effect on crop grade ([6]; foliage application, 192 g/ha)","c (Glycine max) effect on crop grade ([7]; foliage application, 192 g/ha)","b (Zea mays) effect on crop grade ([8]; foliage application, 192 g/ha)","d (directly sowed Oryza sativa) effect on crop grade ([9]; foliage application, 192 g/ha)"
CCC[S+]([O-])c1nnc2c(C(=O)Nc3nnc(C)o3)ccc(C(F)(F)F)n12 (stereo not drawn) [1-092],3 (Herbicidal ratio of 40% or more and less than 70%),5 (Herbicidal ratio of 90% or more (almost completely withered)),5 (Herbicidal ratio of 90% or more (almost completely withered)),5 (Herbicidal ratio of 90% or more (almost completely withered)),5 (Herbicidal ratio of 90% or more (almost completely withered)),3 (Herbicidal ratio of 40% or more and less than 70%),1 (Herbicidal ratio of 5% or more and less than 20%),5 (Herbicidal ratio of 90% or more (almost completely withered)),4 (Herbicidal ratio of 70% or more and less than 90%),–,–,–,–,–,–,–,–,–
Cc1nnc(NC(=O)c2ccc(C(F)(F)F)n3c(SCC(C)C)nnc23)o1 [1-093],0 (Herbicidal ratio of 5% or less (almost no effect)),4 (Herbicidal ratio of 70% or more and less than 90%),4 (Herbicidal ratio of 70% or more and less than 90%),5 (Herbicidal ratio of 90% or more (almost completely withered)),5 (Herbicidal ratio of 90% or more (almost completely withered)),3 (Herbicidal ratio of 40% or more and less than 70%),4 (Herbicidal ratio of 70% or more and less than 90%),0 (Herbicidal ratio of 5% or less (almost no effect)),3 (Herbicidal ratio of 40% or more and less than 70%),–,–,–,–,–,–,–,–,–
CCC(C)Sc1nnc2c(C(=O)Nc3nnc(C)o3)ccc(C(F)(F)F)n12 (stereo not drawn) [1-094],0 (Herbicidal ratio of 5% or less (almost no effect)),4 (Herbicidal ratio of 70% or more and less than 90%),5 (Herbicidal ratio of 90% or more (almost completely withered)),4 (Herbicidal ratio of 70% or more and less than 90%),5 (Herbicidal ratio of 90% or more (almost completely withered)),3 (Herbicidal ratio of 40% or more and less than 70%),4 (Herbicidal ratio of 70% or more and less than 90%),0 (Herbicidal ratio of 5% or less (almost no effect)),3 (Herbicidal ratio of 40% or more and less than 70%),–,–,–,–,–,–,–,–,–
Cc1nnc(NC(=O)c2ccc(C(F)(F)F)n3c(SC(C)(C)C)nnc23)o1 [1-095],1 (Herbicidal ratio of 5% or more and less than 20%),4 (Herbicidal ratio of 70% or more and less than 90%),4 (Herbicidal ratio of 70% or more and less than 90%),4 (Herbicidal ratio of 70% or more and less than 90%),5 (Herbicidal ratio of 90% or more (almost completely withered)),3 (Herbicidal ratio of 40% or more and less than 70%),2 (Herbicidal ratio of 20% or more and less than 40%),0 (Herbicidal ratio of 5% or less (almost no effect)),3 (Herbicidal ratio of 40% or more and less than 70%),–,–,–,–,–,–,–,–,–
Cc1nnc(NC(=O)c2ccc(C(F)(F)F)n3c(N4CCOCC4)nnc23)o1 [1-096],3 (Herbicidal ratio of 40% or more and less than 70%),4 (Herbicidal ratio of 70% or more and less than 90%),5 (Herbicidal ratio of 90% or more (almost completely withered)),5 (Herbicidal ratio of 90% or more (almost completely withered)),5 (Herbicidal ratio of 90% or more (almost completely withered)),5 (Herbicidal ratio of 90% or more (almost completely withered)),4 (Herbicidal ratio of 70% or more and less than 90%),4 (Herbicidal ratio of 70% or more and less than 90%),4 (Herbicidal ratio of 70% or more and less than 90%),–,–,–,–,–,–,–,–,–
CC(C)c1nnc2c(C(=O)Nc3nnc(C(F)(F)F)o3)ccc(C(F)(F)F)n12 [1-100],0 (Herbicidal ratio of 5% or less (almost no effect)),4 (Herbicidal ratio of 70% or more and less than 90%),5 (Herbicidal ratio of 90% or more (almost completely withered)),5 (Herbicidal ratio of 90% or more (almost completely withered)),3 (Herbicidal ratio of 40% or more and less than 70%),0 (Herbicidal ratio of 5% or less (almost no effect)),0 (Herbicidal ratio of 5% or less (almost no effect)),0 (Herbicidal ratio of 5% or less (almost no effect)),1 (Herbicidal ratio of 5% or more and less than 20%),–,–,–,–,–,–,–,–,–
COc1cccc(Nc2nnc3c(C(=O)Nc4nnc(C)o4)ccc(C(F)(F)F)n23)n1 [1-102],2 (Herbicidal ratio of 20% or more and less than 40%),4 (Herbicidal ratio of 70% or more and less than 90%),4 (Herbicidal ratio of 70% or more and less than 90%),5 (Herbicidal ratio of 90% or more (almost completely withered)),4 (Herbicidal ratio of 70% or more and less than 90%),2 (Herbicidal ratio of 20% or more and less than 40%),0 (Herbicidal ratio of 5% or less (almost no effect)),0 (Herbicidal ratio of 5% or less (almost no effect)),1 (Herbicidal ratio of 5% or more and less than 20%),–,–,–,–,–,–,–,–,–
Cc1cc(C(=O)Nc2nnnn2C)c2nnc(C(C)C)n2c1C(F)(F)F [2-050],–,–,–,–,–,–,–,–,–,2 (Herbicidal ratio of 20% or more and less than 40%),3 (Herbicidal ratio of 40% or more and less than 70%),4 (Herbicidal ratio of 70% or more and less than 90%),3 (Herbicidal ratio of 40% or more and less than 70%),3 (Herbicidal ratio of 40% or more and less than 70%),0 (Herbicidal ratio of 5% or less (almost no effect)),0 (Herbicidal ratio of 5% or less (almost no effect)),0 (Herbicidal ratio of 5% or less (almost no effect)),3 (Herbicidal ratio of 40% or more and less than 70%)
